Laboratory results published in patent US20230248025A1 (priority 2020, published 2023).
Several values for one entry are separate records, joined by “and”; a condition that tells them apart may be missing. Identical values can stand only once.

Tests used:
[1] = Color and stability study in emulsified cooked sausage (visual, L*a*b*, hue angle, delta a*, delta E); type: physicochemical
[2] = pH of emulsified cooked sausage modalities before and after cooking; type: physicochemical
total flora = assay: Total plate count in cooked emulsified sausage during storage; type: cell-based
lactic flora = assay: Lactic flora in cooked emulsified sausage during storage; type: cell-based
Listeria monocytogenes [3] = assay: Challenge test Listeria in fresh ground sausage; type: cell-based
[4] = tested on: Clostridium botulinum (group II type B); type: cell-based
lactic acid bacteria = assay: Endogenous lactic acid bacteria in cooked emulsified sausage model; type: cell-based
toxins of C. botulinum = tested on: toxins of C. botulinum; set-up: species or system Clostridium botulinum; settings: in vivo
Listeria monocytogenes [5] = settings: emulsified sausage; 4° C. then 8° C.
[6] = cooked emulsified sausage, d0 to d21
[7] = emulsified sausage, modalities 3-6 also contain 3000 ppm Natstabil M2 blend1

## O=NO [Nitrite]
[1]; 10 days at 4° C. and 11 days at 8° C.
  sausage color after 21 days of storage (visual): slightly degraded (pale orange shade)
[1]; [6]
  a* value over time: a* values more important than control, stable over time
  b* value over time: slight increase of b* value at d21
[1]; [7]
  meat color before cooking (visual): grey
  sausage color after cooking (visual): light pink
[2]
  pH after cooking d0: 6.48
  pH before cooking: 6.31
  pH d7: 6.43
  pH d14: 6.47
  pH d21: 6.47
Total flora
  total flora growth: normal growth
Lactic flora
  lactic flora growth: normal growth
Listeria monocytogenes [3]; d4
  Δ log cfu/g versus untreated control: < −0.5 log cfu/g
Listeria monocytogenes [3]; d8
  Δ log cfu/g versus untreated control: < −0.5 log cfu/g
[4]
  C. botulinum (spores + vegetative cells) D0 before cooking: 250 CFU/g and 450 CFU/g and 400 CFU/g
  C. botulinum (spores + vegetative cells) Day 30: <5 CFU/g and 5 CFU/g
  C. botulinum (spores + vegetative cells) Day 40: 5 CFU/g and <5 CFU/g
  C. botulinum (spores only) D0 after cooking: <5 CFU/g and 5 CFU/g
  C. botulinum (spores only) Day 21: <5 CFU/g
  C. botulinum (spores only) Day 30: <5 CFU/g
  C. botulinum (spores only) Day 40: <5 CFU/g
Lactic acid bacteria; 14 days at 4° C., 2 h at 20° C. and 26 days at 8° C.
  Lactic acid bacteria Day 40: <5 CFU/g
Lactic acid bacteria; inoculated sausage model
  Lactic acid bacteria D0 after cooking: <5 CFU/g
Toxins of C. botulinum
  Detection of toxins of C. botulinum, positive samples of 5, Day 21: 0/5
  Detection of toxins of C. botulinum, positive samples of 5, Day 40: 0/5
  production of C. botulinum toxin: inhibit the production of toxin
Listeria monocytogenes [5]
  Listeria growth during shelf-life: cannot limit the growth

## lactate
Total flora
  total flora growth: normal growth
Lactic flora
  lactic flora growth: normal growth
Listeria monocytogenes [3]; d8
  Δ log cfu/g versus untreated control: −0.9 log cfu/g
